This is an account of results in article PMC4140816, “Differential Sensitivity of Src-Family Kinases to Activation by SH3 Domain Displacement” (PLoS ONE, 2014).

Broadly, the Km is the substrate concentration at which the rate is half of its maximum. The Kd is the free concentration of one partner at which half of the binding sites on the other are occupied at equilibrium, for simple one-to-one binding.

Values joined by “and” are separate entries in the source; they are usually repeats but may differ in a detail not shown here. Equal entries are not always repeated. Where two headings read alike, the source gives them in different places.

Assay [1] concerns the target Hck-YEEI (Homo sapiens, UniProt P08631, Q523E/Q524E/Q525I). In words: Km determination, ADP Quest assay, Hck-YEEI. The assay is classed as biochemical. As to conditions: pH 7.4, 25°C, 150 ng/well kinase, mean ±S.E.
The target of assay [2] is Lyn-YEEI (Homo sapiens, UniProt P07948, Q509E/Q510E/Q511I). Kind of assay: Km determination, ADP Quest assay, Lyn-YEEI. The assay is classed as biochemical. As to conditions: pH 7.4, 25°C, 250 ng/well kinase, mean ±S.E.
Sequence of Lyn-YEEI (P07948 63-512 Q509E/Q510E/Q511I limits assumed): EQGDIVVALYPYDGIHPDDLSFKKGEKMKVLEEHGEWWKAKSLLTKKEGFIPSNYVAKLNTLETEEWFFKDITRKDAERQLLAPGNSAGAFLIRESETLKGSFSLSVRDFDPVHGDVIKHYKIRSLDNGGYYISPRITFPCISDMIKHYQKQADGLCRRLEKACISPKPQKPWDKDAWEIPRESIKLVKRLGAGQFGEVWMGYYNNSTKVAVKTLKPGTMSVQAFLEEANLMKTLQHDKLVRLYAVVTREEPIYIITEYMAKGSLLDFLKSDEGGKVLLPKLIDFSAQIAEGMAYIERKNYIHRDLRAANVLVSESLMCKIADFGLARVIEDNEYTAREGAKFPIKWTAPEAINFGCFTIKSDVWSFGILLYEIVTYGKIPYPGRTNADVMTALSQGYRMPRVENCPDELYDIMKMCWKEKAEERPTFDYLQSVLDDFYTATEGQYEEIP
In assay [3] the target is Fyn-YEEI (Homo sapiens, UniProt P06241). Kind of assay: Km determination, ADP Quest assay, Fyn-YEEI. As to conditions: pH 7.4, 25°C, 150 ng/well kinase, mean ±S.E. The assay is classed as biochemical.
Sequence of Fyn-YEEI (P06241 with tags, fused parts or gaps): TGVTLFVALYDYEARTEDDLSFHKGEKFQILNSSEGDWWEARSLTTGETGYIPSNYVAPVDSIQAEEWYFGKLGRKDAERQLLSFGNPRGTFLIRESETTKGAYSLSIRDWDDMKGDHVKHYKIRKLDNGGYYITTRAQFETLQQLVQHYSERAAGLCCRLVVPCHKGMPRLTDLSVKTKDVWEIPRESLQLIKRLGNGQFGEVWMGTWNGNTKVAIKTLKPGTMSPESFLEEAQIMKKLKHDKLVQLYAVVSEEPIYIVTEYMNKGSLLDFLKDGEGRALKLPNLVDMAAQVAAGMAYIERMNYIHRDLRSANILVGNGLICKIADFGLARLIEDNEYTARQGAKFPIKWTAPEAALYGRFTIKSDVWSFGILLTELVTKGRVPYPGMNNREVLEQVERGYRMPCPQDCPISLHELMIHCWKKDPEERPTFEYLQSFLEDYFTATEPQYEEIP
The target in assay [4] is Src-YEEI (Homo sapiens, UniProt P12931). The assay is classed as biochemical. As to conditions: pH 7.4; read-out: Km YIYGSFK.
Assay [5] has as its target Lyn SH3 domain (Homo sapiens, UniProt P07948). In words: SPR, VSL12 binding to Lyn SH3. As to conditions: biotinylated VSL12 on SA chip, 25°C, duplicate runs. As for the experimental part: The biotinylated peptide was immobilized to 80 Response Units (RU) on the surface of a streptavidin (SA) biosensor chip. The recombinant purified Src SH3 domain proteins were flowed past the peptide over the concentration ranges shown. Association was measured for 180 s, followed by a 300 s dissociation phase.
The C-terminus of each construct was modified by the addition of the sequence […] as encoded by the XhoI site and the His6 tag in the vector. For expression of the SH3 and SH2 domains, E. coli strain Rosetta 2(DE3)pLysS (EMD Millipore) was transformed with each plasmid and cultures were grown at 37°C until the OD600 reached 0.8–1.0. Protein expression was induced with 0.4 mM isopropyl -D-thiogalactopyranoside (IPTG) for 4 h at 25°C. The isolated KDs were expressed as previously described by Seeliger, et al. For purification, cell pellets were resuspended in ion-exchange start buffer (20 mM Tris-HCl, pH 8.5, 5 mM -mercaptoethanol, 10% glycerol), sonicated, and clarified by centrifugation. […] Recombinant purified protein concentrations were quantified by Bradford assay using the BioRad Protein Assay Dye Reagent Concentrate and purified BSA as a reference standard (Pierce).
SPR experiments were performed using a Biacore 3000 Instrument (GE Healthcare) on a streptavidin (SA) biosensor chip. […] Association was measured for 180 s, followed by 300 s of dissociation in HBS-EP running buffer. […]
On the technique in general: SPR reads the build-up and loss of mass on a sensor chip optically.

Where [6] appears, read: peptide substrate at Km, n = 3, read-out: Km ATP.
The mark [7] stands for this setting: ATP held constant at 200 (µM), n = 4, read-out: Km YIYGSFK.

Sequence of Hck-YEEI (P08631 78-526 Q523E/Q524E/Q525I limits assumed): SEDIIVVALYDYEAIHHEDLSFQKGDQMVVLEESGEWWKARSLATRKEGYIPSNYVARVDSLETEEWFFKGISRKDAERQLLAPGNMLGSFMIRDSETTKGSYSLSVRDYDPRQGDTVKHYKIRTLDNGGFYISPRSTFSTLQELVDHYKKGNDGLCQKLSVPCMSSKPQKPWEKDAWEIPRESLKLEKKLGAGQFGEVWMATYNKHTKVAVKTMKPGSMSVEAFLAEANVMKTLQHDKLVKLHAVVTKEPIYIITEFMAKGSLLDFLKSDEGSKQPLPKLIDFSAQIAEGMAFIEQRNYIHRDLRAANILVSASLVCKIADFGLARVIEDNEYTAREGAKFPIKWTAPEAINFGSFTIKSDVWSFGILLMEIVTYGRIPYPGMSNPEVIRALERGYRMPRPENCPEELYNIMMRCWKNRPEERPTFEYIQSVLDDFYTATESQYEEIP
Sequence of Lyn SH3 domain (P07948 63-123 limits assumed): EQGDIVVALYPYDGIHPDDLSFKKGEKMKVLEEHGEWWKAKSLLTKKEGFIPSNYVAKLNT

`Nc1ncnc2c1ncn2[C@@H]1O[C@H](COP(=O)(O)OP(=O)(O)OP(=O)(O)O)[C@@H](O)[C@H]1O` [ATP]: the Km in assay [1] (setting [6]) is 55.8 ± 18.5 µM; in assay [2] (setting [6]) it was 31.1 ± 9.7 µM; in assay [3] (setting [6]), 49.7 ± 8.2 µM.

In the case of “YIYGSFK [SFK substrate peptide; Anaspec]”, the Km in assay [4] is 159 µM; in assay [1] (setting [7]), 83.8 ± 12.5 µM; in assay [2] (setting [7]), 83.2 ± 4.9 µM; in assay [3] (setting [7]) it was 70 µM and 69.6 µM.

Turning to `CC(C)C[C@H](NC(=O)[C@H](CO)NC(=O)[C@@H](N)C(C)C)C(=O)N[C@@H](C)C(=O)N[C@@H](CCCN=C(N)N)C(=O)N[C@@H](CCCN=C(N)N)C(=O)N1CCC[C@H]1C(=O)N[C@@H](CC(C)C)C(=O)N1CCC[C@H]1C(=O)N1CCC[C@H]1C(=O)N[C@@H](CC(C)C)C(=O)N1CCC[C@H]1C(=O)O` [VSL12], the Kd in assay [5] (31.25-250 nM SH3, 1:1 Langmuir fit, χ^2 1.850, read-out: Kinetic KD) was 647 nM; in assay [5] (31.25-250 nM SH3, steady state model, χ^2 0.225, read-out: Steady-State KD) it was 562 nM.
